One assay has as its target D(2) dopamine receptor (Homo sapiens, UniProt P14416). The assay is described as follows: Binding affinity towards dopamine D2 receptor using radiolabeled ligand [3H]spiperone.
Assay [1] addresses T1, Sigma non-opioid intracellular receptor 1 (Homo sapiens, UniProt Q99720). The assay can be described thus: Binding affinity for sigma receptor using [3H]-(+)-SKF- 10,047.
In another assay the target is Glutamate NMDA receptor. The assay is described as follows: Binding affinity towards PCP receptor in rat brain membrane using radiolabeled ligand [3H]TCP (1-[1-(2-thienyl)cyclohexyl]piperidine) was determined. Type of assay: cell membranes.
Assay [2] addresses T1, Sigma non-opioid intracellular receptor 1. The assay is described as follows: Binding affinity towards sigma receptor using radiolabeled ligand [3H]-(+)-SKF- 10,047 was determined.
Assay [3] is described as follows: Binding affinity towards dopamine D2 receptor using radiolabeled ligand [3H]spiperone.

Each structure is given as a SMILES string.

T1 sequence (Q99720 whole entry): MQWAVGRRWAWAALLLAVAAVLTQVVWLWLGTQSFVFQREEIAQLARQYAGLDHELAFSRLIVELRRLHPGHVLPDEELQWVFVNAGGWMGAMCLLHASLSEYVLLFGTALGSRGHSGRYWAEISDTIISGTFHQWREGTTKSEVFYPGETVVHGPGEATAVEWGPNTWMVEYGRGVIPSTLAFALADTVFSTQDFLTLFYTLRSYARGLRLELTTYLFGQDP
D(2) dopamine receptor, sequence (P14416 whole entry): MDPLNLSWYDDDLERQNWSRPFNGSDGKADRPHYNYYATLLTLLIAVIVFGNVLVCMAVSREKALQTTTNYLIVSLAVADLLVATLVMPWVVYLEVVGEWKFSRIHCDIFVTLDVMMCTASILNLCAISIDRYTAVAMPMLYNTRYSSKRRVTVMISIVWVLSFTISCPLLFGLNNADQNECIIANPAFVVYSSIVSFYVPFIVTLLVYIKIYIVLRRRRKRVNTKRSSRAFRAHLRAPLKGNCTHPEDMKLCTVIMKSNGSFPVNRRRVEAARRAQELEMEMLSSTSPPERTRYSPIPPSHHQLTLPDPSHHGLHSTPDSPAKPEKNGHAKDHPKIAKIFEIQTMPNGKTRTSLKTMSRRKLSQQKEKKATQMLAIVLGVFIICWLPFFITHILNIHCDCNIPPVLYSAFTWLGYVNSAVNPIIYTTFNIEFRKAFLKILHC

With `O=C1CC2(CCN(CCc3ccccc3)CC2)OC=C1c1cccs1`, the Ki on D(2) dopamine receptor is 1080 nM; in assay [1], 7 nM.

Take `CN1C2CCC1CC1(CC(=O)C(c3ccccc3)=CO1)C2` (single isomer, unassigned; (-)): the Ki at D(2) dopamine receptor is more than 10000 nM; in assay [1], 1830 nM.

For the compound `O=C1CC2(CCCN(Cc3ccccc3)C2)OC=C1c1ccccc1` (single isomer, unassigned; (-)), in assay [1], the Ki was 13 nM.

As for `O=C1CC2(CCN(CCc3ccccc3)CC2)OC=C1c1ccc(F)cc1`, the Ki at D(2) dopamine receptor was 2900 nM; at Glutamate NMDA receptor it was 1690 nM; in assay [2] it was 6 nM.

Turning to `O=C1C(c2ccc(F)cc2)COC12CCN(Cc1ccccc1)CC2` (single isomer, unassigned; (-)), the figures for the Ki (on Glutamate NMDA receptor; in assay [3]) were 2230 nM and 47 nM, respectively.

For the compound `COc1ccc(C2=COC3(CCN(CCc4ccccc4)CC3)CC2=O)cc1`, the inhibitory constant (Ki) on D(2) dopamine receptor turned out to be 1500 nM; in assay [1], 30 nM.

In the case of `O=C1CC2(CCN(Cc3ccccc3)CC2)OC=C1c1ccccc1`, the Ki on D(2) dopamine receptor is 1460 nM.

With `CN1CCC2(CC1)CC(=O)C(c1ccc(F)cc1)=CO2`, the Ki on D(2) dopamine receptor is more than 100000 nM; in assay [1], 7300 nM.

Regarding `O=C1C=C(c2ccccc2)OC2(CCN(CCc3ccccc3)CC2)C1`, the Ki on D(2) dopamine receptor came to 4200 nM; in assay [1], 10 nM.

For the compound `O=C1C[C@]2(CC[C@@H](OCc3ccccc3)CC2)OC=C1c1ccccc1`, the Ki on D(2) dopamine receptor and at Glutamate NMDA receptor was more than 10000 nM each time.

With `CN1CCC2(CC1)CC(=O)C(c1ccccc1)=CO2`, the Ki at D(2) dopamine receptor was more than 100000 nM; in assay [1] it was 6880 nM.

For the compound `CCN(CC)CCCC1(C)CC(=O)C(c2ccccc2)=CO1` (single isomer, unassigned; (-)), the values for the Ki (on D(2) dopamine receptor; at Glutamate NMDA receptor; in assay [2]) were more than 10000 nM, more than 10000 nM and 34 nM, respectively.

In the case of `O=C1C=C(c2ccco2)OC2(CCN(CCc3ccccc3)CC2)C1`, the Ki at D(2) dopamine receptor is 7600 nM; in assay [1], 70 nM.

As to `O=C1CC2(CCN(CCc3ccccc3)CC2)OCC1c1ccc(F)cc1` (stereo not drawn), the values for the Ki on D(2) dopamine receptor and at Glutamate NMDA receptor were 1530 nM and 14000 nM, respectively.

For `O=C1C[C@]2(CC[C@H](OCc3ccccc3)CC2)OC=C1c1ccccc1`, the inhibition constant (Ki) on D(2) dopamine receptor and at Glutamate NMDA receptor was more than 10000 nM each time.

As for `CN(C)CC1(C)CC(=O)C(c2ccccc2)=CO1` (single isomer, unassigned; (-)), the Ki on D(2) dopamine receptor was determined as 4100 nM; in assay [1], 352 nM.

Consider `O=C1CC2(CCN(CCc3ccccc3)CC2)OC=C1c1ccccc1`, for which the inhibition constant Ki at D(2) dopamine receptor was 2030 nM; at Glutamate NMDA receptor it was more than 10000 nM; in assay [2] it was 5 nM.

Turning to `O=C1CC2(CCN(CCc3ccccc3)CC2)OC=C1c1ccccc1F`, the Ki on D(2) dopamine receptor is 2330 nM; at Glutamate NMDA receptor, 30000 nM; in assay [2], 1 nM.

On to `O=C1CC2(CCCN(Cc3ccccc3)C2)OC=C1c1ccc(F)cc1` (single isomer, unassigned; (-)), for which the Ki was 8780 nM at D(2) dopamine receptor, more than 10000 nM at Glutamate NMDA receptor and 131 nM in assay [2].

For `O=C1CC2(CN3CCC2CC3)OC=C1c1ccccc1` (stereo not drawn), the results for the Ki (on D(2) dopamine receptor; in assay [1]) were more than 10000 nM and 1590 nM, respectively.

These data come from ChEMBL document CHEMBL1127001, “Novel sigma receptor ligands 2” (Bioorg Med Chem Lett, 1993).
